Like-named read-outs stand apart in the source and are kept apart here.
Experiments:
[1] = system: AH-130; test: Anti-cancer effect (T/C) on subcutaneously transplanted AH-130, oral administration (Table 2); type: in vivo, male Donryu rats
Text: (2) Determination of effects
(§1) Ascites cells (5×10^6) of AH-130, are subcutaneously transplanted in the armpit of male Donryu rats weighing about 200 g (ten rats in each group). […] Twenty-four hours after the transplantation and during the following seven consecutive days the suspension is orally given to the animal once every day at the dose listed in Table 2. On the 10th day after the transplantation, the tumor is removed from the body and weighed to calculate the average weight (T) of the tumors in the group to which the composition has been given and the corresponding weight (C) in the control group to determine the ratio T/C.

[2] = system: sarcoma 180; test: Therapeutic effect on sarcoma 180 transplanted in mice (Table 5); type: in vivo, male mice of ICR strain; details: oral, 14400 min
Description: (§2) (5) The anti-cancer compositions of this invention are tested in mice by the following methods to determine acute toxicity, therapeutic effect and theapeutic index.
Tissues of sarcoma 180, 2×10^6, are subcutaneously transplanted in the back of male mice of ICR strain (6 mice in each group). […] Twenty-four hours after the transplantation and during the following seven consecutive days the suspension is orally given to the animal once every day.

[3] = in vivo; parameters: species or system male rats of Donryu strain; details: rat, po, Concentration of 5-fluorouracil in blood
Text: Ascites cells (5×10^6) of AH-130 are subcutaneously transplanted in the armpit portion of male rats of Donryu strain weighing about 200 g. Seven days thereafter, the rats with cancer cells weighing at least 2 g are used, five rats in each group.
Two, four and eight hours after the administration, the blood serum and cancer tissue homogenate are collected, each of which is acidified with hydrochloric acid and extracted with chloroform. The resulting aqueous layer is examined for antibiotic activity according to the thin-cup method (Media Circle, Vol. 92, p. 259, 1967) with use of Staphylococcus aureus 209P strain.

[4] = system: AH-130; test: Effects of Preparations 1 to 8 on AH-130 (Table 4); type: in vivo, male Donryu rats
Text: as §1
(4) Compositions formulated according to Preparations 1 to 8 given above are tested by the foregoing method for effects on AH-130.

[5] = in vivo; type: in vivo; details: mouse, in vivo, po, mice
Description: as §2
(§3) Male mice of ICR strain weighing 22±1 g are used, 5 mice in each group. […] Over the following period of three weeks the mice are checked every day for poisoning, body weight and mortality. The LD50 is determined according to the up-and-down method 3 weeks after the administration.

[6] = system: mice; test: in vivo; type: in vivo; details: oral, 30240 min
Description: as §2, §3

[7] = background; cited from earlier work
[8] = system: sarcoma 180; test: Therapeutic index (LD50/ED50) in mice (Table 5); type: in vivo, male mice of ICR strain; details: oral
Text: The LD50 and ED50 values obtained above are used to determine the therapeutic index (LD50 /ED50).

[9] = Rattus norvegicus, po, 240 h; read-out: Anti-cancer effect (T/C)
[10] = oral, 5-fluorouracil (a) 0.5 m.mol/kg + uracil 0.5 m.mol/kg
[11] = uracil (b)/(a) mol ratio 0, as amount of 5-fluorouracil (a)
[12] = uracil (b)/(a) mol ratio 2.5, as amount of 5-fluorouracil (a)
[13] = uracil (b)/(a) mol ratio 10, as amount of 5-fluorouracil (a)
[14] = Rattus norvegicus, po, 240 h, read-out: Anti-cancer effect (T/C)
[15] = oral, 5-fluorouracil (a) 0.5 m.mol/kg + uracil 0.2 m.mol/kg
[16] = oral, 5-fluorouracil (a) 0.5 m.mol/kg + uracil 1 m.mol/kg
[17] = oral, 5-fluorouracil (a) 0.5 m.mol/kg + uracil 0.1 m.mol/kg

## O=c1cc[nH]c(=O)[nH]1 [uracil (b), uracil]
[1]; oral, uracil (b) alone 1 m.mol/kg
  effect (T/C): 0.96
[1]; uracil (b) itself
  anti-cancer effect of uracil itself: no anti-cancer effect whatever

## Fc1cnc(OCc2ccccc2)nc1OCc1ccccc1 [Compound 12, 2,4-Dibenzyl-5-fluorouracil]
[1]; [9]
  response vs control in vivo at 500 µmol/kg: 55%
[1]; [10]
  Anti-cancer effect (T/C): 0.41
[2]; [11]
  ED50: 362 mg/kg
[2]; [12]
  ED50: 224 mg/kg
[2]; [13]
  ED50: 163 mg/kg

## O=c1[nH]cc(F)c(=O)[nH]1 [Compound 1, 5-Fluorouracil]
[3]
  concentration at 4 h: 20 ng/mL
[1]; [14]
  response vs control in vivo at 80 µmol/kg: 69%
[1]; oral, 5-fluorouracil (a) 0.08 m.mol/kg + uracil 0.08 m.mol/kg
  Anti-cancer effect (T/C): 0.59
[1]; oral, 5-fluorouracil (a) 0.08 m.mol/kg + uracil 0.16 m.mol/kg
  Anti-cancer effect (T/C): 0.32
[4]; I.v., Compd. 1 10 mg/kg, formulated as Preparation 6 but no uracil
  Anti-cancer effect (control) (T/C): 0.66
[5]; [13]
  LD50 at 504 h: 97 mg/kg
[6]; [11]
  LD50: 115 mg/kg
[6]; [12]
  LD50: 115 mg/kg
[2]; [11]
  ED50: 18.5 mg/kg
[2]; [12]
  ED50: 8.5 mg/kg
[2]; [13]
  ED50: 6.0 mg/kg
[7]
  toxicity and side effects: high toxicity and marked side effects

## CCCC(=O)n1cc(F)c(=O)[nH]c1=O [Compound 10, 1-(n-Butyryl)-5-fluorouracil]
[1]; [9]
  response vs control in vivo at 500 µmol/kg: 38%
[1]; [10]
  Anti-cancer effect (T/C): 0.11
[2]; [11]
  ED50: 111 mg/kg
[2]; [12]
  ED50: 37 mg/kg
[2]; [13]
  ED50: 28 mg/kg

## CCCCn1cc(F)c(=O)[nH]c1=O [Compound 11, 1-(n-Butyl)-5-fluorouracil]
[1]; [9]
  response vs control in vivo at 500 µmol/kg: 77%
[1]; [10]
  Anti-cancer effect (T/C): 0.53
[5]; [11]
  LD50 at 504 h: 867 mg/kg
[5]; [12]
  LD50 at 504 h: 723 mg/kg
[5]; [13]
  LD50 at 504 h: 358 mg/kg
[2]; [11]
  ED50: 186 mg/kg
[2]; [12]
  ED50: 88 mg/kg
[2]; [13]
  ED50: 49 mg/kg
[8]; uracil (b)/(a) mol ratio 0
  Therapeutic index (LD50/ED50): 4.7
[8]; uracil (b)/(a) mol ratio 2.5
  Therapeutic index (LD50/ED50): 8.2
[8]; uracil (b)/(a) mol ratio 10
  Therapeutic index (LD50/ED50): 7.3

## CCCCCCNC(=O)n1cc(F)c(=O)[nH]c1=O [Compound 4, 1-(n-Hexylcarbamoyl)-5-fluorouracil]
[1]; [14]
  response vs control in vivo at 500 µmol/kg: 39%
[1]; [15]
  Anti-cancer effect (T/C): 0.21
[1]; [10]
  Anti-cancer effect (T/C): 0.15
[1]; [16]
  Anti-cancer effect (T/C): 0.12
[4]; oral, Compd. 4 50 mg/kg, formulated as Preparation 3 but no uracil
  Anti-cancer effect (control) (T/C): 0.45
[5]; [11]
  LD50 at 504 h: 1260 mg/kg
[5]; [12]
  LD50 at 504 h: 980 mg/kg
[5]; [13]
  LD50 at 504 h: 644 mg/kg
[2]; [11]
  ED50: 60 mg/kg
[2]; [12]
  ED50: 24 mg/kg
[2]; [13]
  ED50: 20 mg/kg
[8]; uracil (b)/(a) mol ratio 0
  Therapeutic index (LD50/ED50): 21.0
[8]; uracil (b)/(a) mol ratio 2.5
  Therapeutic index (LD50/ED50): 40.8
[8]; uracil (b)/(a) mol ratio 10
  Therapeutic index (LD50/ED50): 32.2

## O=c1[nH]cc(F)c(=O)n1C1CCCO1 (stereo not shown) [Compound 7, 3-(2-Tetrahydrofuryl)-5-fluorouracil]
[1]; [9]
  response vs control in vivo at 500 µmol/kg: 20%
[1]; [17]
  Anti-cancer effect (T/C): 0.12
[1]; [10]
  Anti-cancer effect (T/C): 0.06
[5]; [11]
  LD50 at 504 h: 1020 mg/kg
[5]; [12]
  LD50 at 504 h: 687 mg/kg
[5]; [13]
  LD50 at 504 h: 381 mg/kg
[2]; [11]
  ED50: 78 mg/kg
[2]; [12]
  ED50: 29 mg/kg
[2]; [13]
  ED50: 16 mg/kg
[8]; uracil (b)/(a) mol ratio 0
  Therapeutic index (LD50/ED50): 13.1
[8]; uracil (b)/(a) mol ratio 2.5
  Therapeutic index (LD50/ED50): 23.7
[8]; uracil (b)/(a) mol ratio 10
  Therapeutic index (LD50/ED50): 23.8

## CCOCn1cc(F)c(=O)[nH]c1=O [Compound 5, 1-Ethoxymethyl-5-fluorouracil]
[1]; [9]
  response vs control in vivo at 500 µmol/kg: 68%
[1]; [15]
  Anti-cancer effect (T/C): 0.33
[1]; [10]
  Anti-cancer effect (T/C): 0.19
[1]; [16]
  Anti-cancer effect (T/C): 0.08
[4]; oral, Compd. 5 100 mg/kg, formulated as Preparation 5 but no uracil
  Anti-cancer effect (control) (T/C): 0.72
[5]; [11]
  LD50 at 504 h: 1000 mg/kg
[5]; [12]
  LD50 at 504 h: 446 mg/kg
[5]; [13]
  LD50 at 504 h: 191 mg/kg
[2]; [12]
  ED50: 26 mg/kg
[2]; [13]
  ED50: 13 mg/kg

## CCOC(=O)n1cc(F)c(=O)[nH]c1=O [Compound 9, 1-Ethoxycarbonyl-5-fluorouracil]
[1]; [14]
  response vs control in vivo at 500 µmol/kg: 22%
[1]; [10]
  Anti-cancer effect (T/C): 0.06
[5]; [11]
  LD50 at 504 h: 332 mg/kg
[5]; [12]
  LD50 at 504 h: 269 mg/kg
[5]; [13]
  LD50 at 504 h: 179 mg/kg
[2]; [11]
  ED50: 101 mg/kg
[2]; [12]
  ED50: 39 mg/kg
[2]; [13]
  ED50: 28 mg/kg
[8]; uracil (b)/(a) mol ratio 0
  Therapeutic index (LD50/ED50): 3.3
[8]; uracil (b)/(a) mol ratio 2.5
  Therapeutic index (LD50/ED50): 6.9
[8]; uracil (b)/(a) mol ratio 10
  Therapeutic index (LD50/ED50): 6.4

## O=c1[nH]c(=O)n(C2CCCO2)cc1F (stereo not shown) [Compound 2, 1-(2-Tetrahydrofuryl)-5-fluorouracil, reference compound]
[1]; [9]
  response vs control in vivo at 500 µmol/kg: 65%
[1]; oral, 5-fluorouracil (a) 0.5 m.mol/kg + uracil 0.05 m.mol/kg
  Anti-cancer effect (T/C): 0.49
[1]; [17]
  Anti-cancer effect (T/C): 0.30
[1]; [15]
  Anti-cancer effect (T/C): 0.23
[1]; [10]
  Anti-cancer effect (T/C): 0.17
[1]; [16]
  Anti-cancer effect (T/C): 0.06
[4]; I.v., Compd. 2 100 mg/kg, formulated as Preparation 7 but no uracil
  Anti-cancer effect (control) (T/C): 0.61
[4]; oral, Compd. 2 100 mg/kg, formulated as Preparation 1 but no uracil
  Anti-cancer effect (control) (T/C): 0.68
[4]; via anus, Compd. 2 100 mg/kg, formulated as Preparation 8 but no uracil
  Anti-cancer effect (control) (T/C): 0.51
[2]; [11]
  ED50: 140 mg/kg
[2]; [12]
  ED50: 20 mg/kg
[2]; [13]
  ED50: 11 mg/kg

## O=c1[nH]c(=O)n(S(=O)(=O)c2ccccc2)cc1F [Compound 8, 1-Benzenesulfonyl-5-fluorouracil]
[1]; [9]
  response vs control in vivo at 500 µmol/kg: 48%
[1]; [17]
  Anti-cancer effect (T/C): 0.39
[1]; [10]
  Anti-cancer effect (T/C): 0.21
[5]; [11]
  LD50 at 504 h: 1170 mg/kg
[5]; [12]
  LD50 at 504 h: 973 mg/kg
[5]; [13]
  LD50 at 504 h: 427 mg/kg
[2]; [11]
  ED50: 234 mg/kg
[2]; [12]
  ED50: 88 mg/kg
[2]; [13]
  ED50: 48 mg/kg

## O=c1c(F)cn(C2CCCO2)c(=O)n1C1CCCO1 (stereo not shown) [Compound 3, 1,3-bis(2-Tetrahydrofuryl)-5-fluorouracil]
[1]; [9]
  response vs control in vivo at 500 µmol/kg: 24%
[1]; [15]
  Anti-cancer effect (T/C): 0.18
[1]; [10]
  Anti-cancer effect (T/C): 0.12
[1]; [16]
  Anti-cancer effect (T/C): 0.08
[4]; oral, Compd. 3 120 mg/kg, formulated as Preparation 2 but no uracil
  Anti-cancer effect (control) (T/C): 0.25
[4]; oral, Compd. 3 120 mg/kg, formulated as Preparation 4 but no uracil
  Anti-cancer effect (control) (T/C): 0.25
[5]; [11]
  LD50 at 504 h: 2220 mg/kg
[5]; [12]
  LD50 at 504 h: 1890 mg/kg
[5]; [13]
  LD50 at 504 h: 1160 mg/kg
[2]; [11]
  ED50: 118 mg/kg
[2]; [12]
  ED50: 63 mg/kg
[2]; [13]
  ED50: 27 mg/kg
[8]; uracil (b)/(a) mol ratio 0
  Therapeutic index (LD50/ED50): 18.8
[8]; uracil (b)/(a) mol ratio 2.5
  Therapeutic index (LD50/ED50): 30.1
[8]; uracil (b)/(a) mol ratio 10
  Therapeutic index (LD50/ED50): 42.9

From patent US4481203A, “Composition containing 1-(n-hexylcarbamoyl)-5-fluorouracil and uracil” (priority 1977, dated 1984)
